Values joined by “and” are separate entries in the source; they are usually repeats but may differ in a detail not shown here. Equal entries are not always repeated. Where two headings read alike, the source gives them in different places.
Tests used:
[1] = tested on: methicillin-sensitive S. aureus ATCC 29213 (MSSA); test: microbe, parasite or virus in culture; details: Table S1; for IC50: read-out: IC50 MSSA
Description: (§1) MRSA strain ATCC 43300 and MSSA strain S. aureus ATCC 29213 were grown on Tryptic Soy Agar (TSA) plates. Before use, an isolated colony was transferred from the TSA plate into Tryptic Soy Broth (TSB) and incubated 18–24 h in a humidified incubator at 37 °C. To adjust for a standard concentration of bacteria, the turbidity of the culture was measured at 600 nm, and its optical density (OD600) adjusted to be in the range 0.08–0.12 which equates to a concentration of approximately 1 × 10^8 CFU/mL. This suspension was diluted 1:20 in TSB. […] MRSA strain S. aureus ATCC 43300 and MSSA strain S. aureus ATCC 29213 were used for all testing in this study.
(§2) The assay for anti-Staphylococcal activity of AT compounds was prepared in 96-well transparent, U-bottom plates. A series of 2-fold dilutions of AT concentrations was tested in triplicate, with each well containing 10 µL of prepared bacterium and 90 µL of AT mixture in CAMHB. […] Blank wells with only CAMHB, a negative control well with 10 µL of bacterium solution mixed into 90 µL CAMHB, a vehicle control well with bacteria mixed into 1% DMSO in CAMBH, and a positive cell death control with vancomycin (1 µL of stock 2 mg/mL solution in 89 µL CAMHB with 10 µL of bacteria) were included. The plate was incubated for 18–24 h at 37 °C in a humidified incubator. Before measurement, PrestoBlue^TM dye (Invitrogen, Carlsbad, CA, USA) was added (10 µL per well) and incubated for 1 h with aluminum foil covering the plate. A CLARIOstar® (BMG LABTECH, Cary, NC, USA) multi-mode plate reader was used to measure the fluorescence at wavelengths of 560 nm for excitation and 590 nm for emission. Inhibitory concentration (IC50) values were defined as half inhibitory concentration and were computed using GraphPad Prism version 9.1 software.

[2] = tested on: HepG2 (ATCC HB-8065) cells; test: Cytotoxicity assay (PrestoBlue); assay type: cell-based, Human
[3] = tested on: HeLa (ATCC CCL-2) cells; test: Cytotoxicity assay (PrestoBlue)
Description: Human HeLa epithelial (ATCC CCL-2) and HepG2 liver epithelial (ATCC HB-8065) cell lines were used to determine toxicity of AT compounds for mammalian cells. The cells were grown in a complete culture medium of RPMI 1640 with 10% heat-inactivated fetal bovine serum (FBS) at 37 °C in 5% CO2 (95% room air) in a humidified incubator. Before use, attached cell monolayers, which had reached at least 90% confluency, were detached by trypsinization with trypsin-EDTA (0.25%) and resuspension in fresh complete culture media. For experiments, the stock concentration of 1 × 10^5 cells/mL (to achieve a final 1 × 10^4 cells/well concentration) was achieved by counting the trypsinized cells and adjusting to their final concentration for assays.
HeLa or HepG2 cells were pre-seeded into a 96-well transparent, flat bottom plate by adding a volume of 100 µL stock cell concentration (1 × 10^5 cells/mL) in complete culture media to each well. The plate was incubated overnight at 37 °C in a 5% CO2 (95% room air) humidified incubator. After the incubation and before mixing in the AT compounds, a 100 µL volume of fresh complete culture media was added to the pre-seeded wells. The 2-fold dilutions of AT compounds in triplicates were prepared on a separate 96-well plate. Once the dilution plate was prepared, dilutions were transferred into the pre-seeded plate to achieve the same concentrations of ATs as for the inhibition assay described above. The final inoculated plate was then returned to the 5% CO2 (95% room air) humidified incubator for an additional 24 h of incubation with the diluted ATs. Controls were blank wells containing only media, wells with cells and DMSO in complete culture media, and wells with cells and complete culture media only. Measurement of toxicity was analogous to the inhibition assay except that 20 µL of PrestoBlue^TM was used and the incubation was 3–6 h before reading with the plate-reader. Cytotoxicity concentration (CC50) was defined as the concentration where half of the cells remained viable and was computed using GraphPad Prism.

[4] = tested on: methicillin-resistant S. aureus ATCC 43300 (MRSA); test: Antibacterial assay (broth microdilution, PrestoBlue); assay type: cell-based, Staphylococcus aureus; details: for MRSA inhibition (100µM) / IC50: Table S1; for IC50: read-out: IC50 MRSA
Description: as §1, §2

SMILES | MSSA inhibition (100µM) [1] | MRSA inhibition (100µM) [4] | further results
N#Cc1ccc(-c2n[nH]nc2C(=O)c2ccccc2O)cc1 [AT100] | 58.77% | 96.47% and > 96% | CC50 [2]: 70.7 µM; CC50 ([3]; read-out: CC50 HeLa, Table S1): 19.1 µM; IC50 [4]: 38.8 µM
N#Cc1ccccc1-c1n[nH]nc1C(=O)c1ccccc1O [AT102] | 0% | 35.77% | 
O=C(c1ccccc1O)c1n[nH]nc1-c1ccc([N+](=O)[O-])cc1 [AT103] | 81.57% | 88.53% | CC50 [2]: 2.65 µM; IC50 [4]: 3.98 µM
O=C(c1ccccc1O)c1n[nH]nc1-c1cccc([N+](=O)[O-])c1 [AT104] |  | 48.19% | 
O=C(c1ccccc1O)c1n[nH]nc1-c1cccc(Cl)c1 [AT107] | 50.24% | 56.47% | 
O=C(c1ccccc1O)c1n[nH]nc1-c1ccccc1Cl [AT108] | 30.63% | 8.46% | 
O=C(c1ccccc1O)c1n[nH]nc1-c1ccc(I)cc1 [AT113] | 85.79% | 43.81% | 
O=C(c1ccccc1O)c1n[nH]nc1-c1ccc(O)cc1 [AT117] | 0% | 19.39% | 
N#Cc1ccc(-c2n[nH]nc2C(=O)c2cccc(Cl)c2O)cc1 [AT119] | 64.36% | 46.21% | 
N#Cc1ccc(-c2n[nH]nc2C(=O)c2ccc(Cl)cc2O)cc1 [AT120] | 71.82% | 99.51% | IC50 [1]: 6.03 µM; CC50 [2]: 38.1 µM; CC50 [3]: 17.2 µM; IC50 [4]: 4.18 µM
N#Cc1ccc(-c2n[nH]nc2C(=O)c2c(O)cccc2Cl)cc1 [AT122] | 1.01% | 18.51% | 
Cc1ccc(-c2n[nH]nc2C(=O)c2cccc(Cl)c2O)cc1 [AT123] | 99.45% | 23.62% | IC50 [1]: 12.5 µM; CC50 [2]: 58.7 µM; CC50 ([3]; read-out: CC50 HeLa, Table S1): 14.4 µM; IC50 [4]: 31.2 µM
N#Cc1ccc(-c2n[nH]nc2C(=O)c2cccc(Br)c2O)cc1 [AT124] | 43.36% | 32.16% | CC50 [2]: 3.85 µM; IC50 [4]: 13.4 µM
N#Cc1ccc(-c2n[nH]nc2C(=O)c2cc(F)ccc2O)cc1 [AT126] | 64.72% | 75.06% | 
Cc1cc(O)c(C(=O)c2n[nH]nc2-c2cccc([N+](=O)[O-])c2)cc1C [AT130] | 58.75% | 43.97% | 
Cc1ccc(O)c(C(=O)c2n[nH]nc2-c2cccc([N+](=O)[O-])c2)c1 [AT131] | 21.31% | 0% | 
Cc1cccc(C(=O)c2n[nH]nc2-c2cccc([N+](=O)[O-])c2)c1O [AT132] | 83.03% | 57.99% | 
Cc1ccc(-c2n[nH]nc2C(=O)c2cc(C)c(C)cc2O)cc1 [AT133] | 88.47% | 58.84% | 
O=C(c1ccccc1O)c1n[nH]nc1-c1ccsc1 [AT134] | 10.83% | 0% | 
O=C(c1ccccc1O)c1n[nH]nc1-c1cccs1 [AT135] | 46.76% | 5.42% | decrease of anti-MRSA activity ([4]; compared with AT137 (no bromine on the thiophene ring)): over 15 fold
CC(=O)Nc1ccc(-c2n[nH]nc2C(=O)c2ccccc2O)cc1 [AT136] | 0% | 0% | 
